From US20260224566A1, “Obicetrapib and Ezetimibe Combination Treatment and Fixed Dose Pharmaceutical Compositions” (NewAmsterdam Pharma B.V., priority 2023, published 2026)
Counter-ions that a name gives are not always drawn.

Tests used:
[1] = system: ApoE*3-Leiden.CETP transgenic mice; assay: Example 13: plasma cholesterol and atherosclerosis development in aortic root of ApoE*3-Leiden.CETP mice; format: in vivo, mouse
Protocol: The current study was carried out to evaluate the effect of obicetrapib monotherapy and a combination of obicetrapib+ezetimibe on atherosclerosis development in a translational mouse model for hyperlipidemia and atherosclerosis.
(§1) The experimental protocol is illustrated in FIG. 82, with time (t) measured in weeks. Female ApoE*3-Leiden.CETP transgenic mice were fed a Western diet with 0.05% w/w cholesterol (equivalent to daily human intake) with (i) no drug (control), or the same diet containing (ii) obicetrapib alone (2 mg/kg/day), (iii) ezetimibe alone (on average 0.6 mg/kg/day) or (iv) the combination of obicetrapib and ezetimibe.

[2] = system: ApoE*3-Leiden.CETP transgenic mice; assay: Example 12: plasma lipids, VLDL clearance, LDL receptor, fecal and biliary sterols in ApoE*3-Leiden.CETP mice; format: in vivo, mouse
Source text: Obicetrapib is a selective cholesteryl ester transfer protein (CETP) inhibitor currently in clinical development for the treatment of hypercholesterolemia and reduction of cardiovascular risk that strongly reduces Apolipoprotein B (ApoB) and low-density lipoprotein cholesterol (LDL-C) and concomitantly increases plasma high-density lipoprotein cholesterol (HDL-C). Ezetimibe reduces absorption of biliary and dietary cholesterol from the small intestine, thereby reducing LDL-C levels. The current study was carried out to elucidate the mechanism of action responsible for the observed decrease in non-HDL-C by obicetrapib monotherapy and in combination with ezetimibe in a translational mouse model for hyperlipidemia and atherosclerosis.
as §1, with “71,” for “82,”, “(1” for “(on average 0.6”, “ezetimibe. In the experiment, the effects of the treatments on, amongst other things, plasma blood lipids and fecal bile acids and sterols were determined.” for “ezetimibe.”

[3] = system: participants currently receiving high-intensity statin therapy; assay: ROSE2 Phase 2b clinical trial: LDL-C and other lipid efficacy endpoints; format: in vivo, human; conditions: ROSE2; ezetimibe 10 mg on top of obicetrapib 10 mg
Protocol: The primary objective of this study is to evaluate the effect of obicetrapib 10 mg+ezetimibe 10 mg combination therapy compared with placebo, when used as an adjunct to high-intensity statin therapy, on LDL-C at Day 84.
The secondary objectives of this study include the following, in hierarchical order: • To evaluate the effect of obicetrapib 10 mg monotherapy compared with placebo, when used as an adjunct to high-intensity statin therapy, on LDL-C at Day 84; • To evaluate the effect of obicetrapib 10 mg+ezetimibe 10 mg combination therapy compared with placebo, when used as an adjunct to high-intensity statin therapy, on ApoB at Day 84; and • To evaluate the effect of obicetrapib 10 mg monotherapy compared with placebo, when used as an adjunct to high-intensity statin therapy, on ApoB at Day 84.
This study will be a placebo-controlled, double-blind, randomized, Phase 2 study to evaluate the efficacy, safety, and tolerability of obicetrapib 10 mg, both in combination with ezetimibe 10 mg and as monotherapy, as an adjunct to high-intensity statin therapy. This study will take place at approximately 20 sites in the United States.
Up to 2 weeks after the Screening Visit, participants will return to the site on Day 1 (Visit 2) and confirm study eligibility before being randomized and beginning treatment. Approximately 114 eligible participants (38 participants per treatment group) will be randomized in a 1:1:1 ratio to 1 of the following treatment groups: • Combination therapy: Obicetrapib 10 mg+ezetimibe 10 mg (administered as one 10 mg obicetrapib tablet and one 10 mg ezetimibe capsule); • Obicetrapib monotherapy: Obicetrapib 10 mg (administered as one 10 mg obicetrapib tablet and 1 placebo capsule); or. • Placebo (administered as 1 placebo tablet and 1 placebo capsule).
During the 12-week Treatment Period, the assigned study drugs will be administered by the participants orally with water, once daily on Day 1 to Day 84 at approximately the same time each morning. Participants will return to the site on Day 28 (±2 days), Day 84 (±2 days), and Day 112 (±2 days) for efficacy, safety, and pharmacokinetic (PK) assessments. Participants, Investigators, the Clinical Research Organization (CRO), and the Sponsor will be blinded to all lipid results from Day 1 (Visit 2) for the first participant until all enrolled participants complete the Day 84 (End of Treatment) visit or are withdrawn from the study, in order to protect blinding to treatment assignment.
The primary efficacy endpoint is the percent change from Day 1 to Day 84 in LDL-C for the obicetrapib 10 mg+ezetimibe 10 mg combination treatment group compared with the placebo group.
The secondary efficacy endpoints include the following, in hierarchical order: • Percent change from Day 1 to Day 84 in LDL-C for the obicetrapib 10 mg monotherapy. • treatment group compared with the placebo group; • Percent change from Day 1 to Day 84 in ApoB for the obicetrapib 10 mg+ezetimibe 10 mg • combination treatment group compared with the placebo group; and • Percent change from Day 1 to Day 84 in ApoB for the obicetrapib 10 mg monotherapy treatment group compared with the placebo group.
The exploratory efficacy endpoints include the following: • Percent change from Day 1 to Day 84 in non-HDL-C, VLDL-C, HDL-C, TG, ApoE, Lp(a), and HDL-ApoE for the obicetrapib 10 mg+ezetimibe 10 mg combination treatment group compared with the placebo group and for the obicetrapib 10 mg monotherapy treatment group compared with the placebo group; and • Proportion of participants at Day 84 that achieve LDL-C <2.6 mmol/L (<100 mg/dL), LDL-C <1.8 mmol/L (<70 mg/dL), and LDL-C <1.3 mmol/L (<50 mg/dL) for the obicetrapib 10 mg+ezetimibe 10 mg combination treatment group compared with the placebo group and for the obicetrapib 10 mg monotherapy treatment group compared with the placebo group. […]

[4] = cited from earlier work
[5] = system: patients with hypercholesterolemia; conditions: cited from earlier work
[6] = Kinetic solubility in FaSSIF (pH 6.5) at 37° C.; format: physicochemical; conditions: as obicetrapib free acid
Source text: (§2) The amorphous form has a higher kinetic solubility and dissolution rate than the crystalline form (and by extension obicetrapib itself). Both crystalline and amorphous obicetrapib hemicalcium kinetic solubility determinations were made in biorelevant media at different pHs, namely at about 5.0 (FeSSIF conditions) and at pH of about 6.5 (FaSSIF) conditions as set forth in Example 11.28.
The concentrations in Table X are those of obicetrapib (i.e., the free acid).
(§3) The solids were magnetically stirred at 600 RPM in a shaker bath and samples were drawn with a 1.0 ml syringe at T=15 mins, 30 mins, 60 mins, 90 mins and 120 mins. The solubility was measured using HPLC method provided by the client. The compound was added to 4.0 ml glass vials at approximately 20.0 mg/ml. Samples were agitated with a vortex mixer for about 5 minutes to ensure the presence of undissolved excess powder. The sample collected at each time point was centrifuged at 1200 RPM, filtered with 0.45 μm Polytetrafluoroethylene (PTFE) filters and diluted with methanol before HPLC analysis. In order to minimize the effect of potential analyte adsorption on the filter, the initial 0.5 mL of supernatant passing through the filter was discarded prior to collecting sample for HPLC analysis.

[7] = Stability study at 70° C./75% RH, open vial (physical stability by XRPD, chemical purity by HPLC); format: physicochemical; conditions: 75% relative humidity
Source text: FIG. 54 is a plot of x-ray powder diffraction pattern taken of crystalline obicetrapib hemicalcium, and FIG. 55 is a plot of x-ray powder diffraction patterns taken of crystalline obicetrapib hemicalcium under stress conditions. In FIG. 55, there are four diffraction patterns shown based on stability study set forth in Example 11.27. Pattern 1 is an x-ray powder diffraction pattern of a sample of amorphous obicetrapib hemicalcium. Pattern 2 is the x-ray powder diffraction pattern of a sample of crystalline obicetrapib hemicalcium. In pattern 3, the sample of crystalline obicetrapib hemicalcium was exposed to 70° C. at 75% relative humidity for one day. […] Pattern 1 was taken before the sample was placed on stability.
Stability study was conducted on crystalline and amorphous forms of obicetrapib at 70° C./75% relative humidity (RH). The solids were placed into a 4.0 ml glass vial without caps (open condition) and stored at 70° C./75% RH. […] The solids were analyzed by XRPD for physical stability and by HPLC for chemical purity. The sample collected at each time point was dissolved in methanol before HPLC analysis. In order to minimize the effect of potential analyte adsorption on the filter, the initial 0.5 mL of supernatant passing through the filter was discarded prior to collecting sample for HPLC analysis. Purity for each sample was determined based on peak area percent and compared to the sample at T=0.

[8] = Kinetic solubility in FeSSIF (pH 5.0) at 37° C.; format: physicochemical; conditions: as obicetrapib free acid
Source text: as §2
The concentrations in Table W are those of obicetrapib (i.e., the free acid).
as §3

[9] = obicetrapib 2 mg/kg/day, ezetimibe on average 0.6 mg/kg/day in Western diet
[10] = obicetrapib 2 mg/kg/day, ezetimibe 1 mg/kg/day in Western diet
[11] = 15 mins, listed as Amorphous obicetrapib hemicalcium Batch #1
[12] = 15 mins, listed as Amorphous obicetrapib hemicalcium Batch #2
[13] = 30 mins, listed as Amorphous obicetrapib hemicalcium Batch #1
[14] = 30 mins, listed as Amorphous obicetrapib hemicalcium Batch #2
[15] = 60 mins, listed as Amorphous obicetrapib hemicalcium Batch #1
[16] = 60 mins, listed as Amorphous obicetrapib hemicalcium Batch #2
[17] = 90 mins, listed as Amorphous obicetrapib hemicalcium Batch #1
[18] = 90 mins, listed as Amorphous obicetrapib hemicalcium Batch #2
[19] = 120 mins, listed as Amorphous obicetrapib hemicalcium Batch #1
[20] = 120 mins, listed as Amorphous obicetrapib hemicalcium Batch #2

## O=C1[C@H](CC[C@H](O)c2ccc(F)cc2)[C@@H](c2ccc(O)cc2)N1c1ccc(F)cc1 [ezetimibe, (3R,4S)-1-(4-fluorophenyl)-3-[(3S)-3-(4-fluorophenyl)-3-hydroxypropyl]-4-(4-hydroxyphenyl)azetidin-2-one]
[1]; FIG. 84B
  HDL-cholesterol: no increase
[1]; aortic root, 28 weeks of treatment
  severe lesions (types IV-V), change: −31%
[1]; aortic root, 28 weeks of treatment, versus control
  total atherosclerotic lesion size, change: −50%
[1]; [9]
  non-HDL-C levels, change: −19%
  total plasma cholesterol levels, change: −19%
[1]; versus control animals, FIG. 90B
  lesion number: no reduction
[2]; not shown
  biliary bile acids and biliary bile acid flow: did not affect
  biliary cholesterol flow: no significant effects
  biliary cholesterol levels: decreased
  biliary phospholipids and biliary phospholipid flow: did not affect
[2]; [10]
  fecal neutral sterol excretion, change: +68%
  half-life of VLDL-like particles, change: −23%
  non-HDL-C levels, change: −24%
  total plasma cholesterol levels, change: −23%
[3]
  additional/incremental (median) reduction of LDL-C of ezetimibe added on top of obicetrapib: about 32%
[4]
  solubility in water: practically insoluble
[5]; Catapano et al. 2016
  incremental reduction in LDL-C levels in combination with statins: 15-20%
[5]; hyperlipidemic patients, Catapano et al. 2016
  LDL-C reduction typical with ezetimibe mono-therapy: 15-22%
[5]; meta-analysis of 27 studies, more than 21,000 patients
  greater reduction in LDL-C, statin and ezetimibe in combination compared with statin alone: 15.1%

## CCOC(=O)N1c2ccc(C(F)(F)F)cc2[C@@H](N(Cc2cc(C(F)(F)F)cc(C(F)(F)F)c2)c2ncc(OCCCC(=O)O)cn2)C[C@H]1CC [amorphous obicetrapib hemicalcium, amorphous hemicalcium salt of (2R,4S)-4-{[3,5-bis(trifluoromethyl)benzyl]-[5-(3-carboxypropoxy)pyrimidin-2-yl]amino}-2-ethyl-6-trifluoromethyl-3,4-dihydro-2H-quinoline-1-carboxylic acid ethyl ester]
[6]; [11]
  Concentration in Solution: 60 µg/mL
[6]; [12]
  Concentration in Solution: 90 µg/mL
[6]; [13]
  Concentration in Solution: 99 µg/mL
[6]; [14]
  Concentration in Solution: 140 µg/mL
[6]; [15]
  Concentration in Solution: 163 µg/mL
[6]; [16]
  Concentration in Solution: 229 µg/mL
[6]; [17]
  Concentration in Solution: 201 µg/mL
[6]; [18]
  Concentration in Solution: 293 µg/mL
[6]; [19]
  Concentration in Solution: 244 µg/mL
[6]; [20]
  Concentration in Solution: 387 µg/mL
[7]; 7 days
  physical stability by XRPD: remained amorphous
[7]; 14 days
  physical stability by XRPD: remained amorphous
[8]; [11]
  Concentration in Solution: 520 µg/mL
[8]; [12]
  Concentration in Solution: 502 µg/mL
[8]; [13]
  Concentration in Solution: 661 µg/mL
[8]; [14]
  Concentration in Solution: 618 µg/mL
[8]; [15]
  Concentration in Solution: 675 µg/mL
[8]; [16]
  Concentration in Solution: 628 µg/mL
[8]; [17]
  Concentration in Solution: 696 µg/mL
[8]; [18]
  Concentration in Solution: 658 µg/mL
[8]; [19]
  Concentration in Solution: 675 µg/mL
[8]; [20]
  Concentration in Solution: 642 µg/mL

## CCOC(=O)N1c2ccc(C(F)(F)F)cc2[C@@H](N(Cc2cc(C(F)(F)F)cc(C(F)(F)F)c2)c2ncc(OCCCC(=O)[O-])cn2)C[C@H]1CC.CCOC(=O)N1c2ccc(C(F)(F)F)cc2[C@@H](N(Cc2cc(C(F)(F)F)cc(C(F)(F)F)c2)c2ncc(OCCCC(=O)[O-])cn2)C[C@H]1CC.[Ca+2] [crystalline obicetrapib hemicalcium, reference compound]
[7]; 7 days
  physical stability by XRPD: the result remains the same
[7]; one day
  physical stability by XRPD: near total loss of crystallinity
